pIC50: −log10 of the molar value.
These compounds were tested against T1, SCD (stearoyl-CoA desaturase) (Rattus norvegicus, UniProt P07308) (assay: SCD assay with rat liver microsomes, [3H]stearoyl CoA (adapted from Talamo and Bloch)). Conditions: rat liver microsomes 0.2 mg/ml final, 30 min preincubation, 45 min reaction at room temperature.
T1 construct: The rat liver microsomes were collected according to the procedure described in Ozols (1990) Methods Enzm, 182:225; from tissue; host or cells: liver microsomes of male Sprague Dawley rats, SCD induced by a carbohydrate-rich diet
T1 sequence (P07308 1-358): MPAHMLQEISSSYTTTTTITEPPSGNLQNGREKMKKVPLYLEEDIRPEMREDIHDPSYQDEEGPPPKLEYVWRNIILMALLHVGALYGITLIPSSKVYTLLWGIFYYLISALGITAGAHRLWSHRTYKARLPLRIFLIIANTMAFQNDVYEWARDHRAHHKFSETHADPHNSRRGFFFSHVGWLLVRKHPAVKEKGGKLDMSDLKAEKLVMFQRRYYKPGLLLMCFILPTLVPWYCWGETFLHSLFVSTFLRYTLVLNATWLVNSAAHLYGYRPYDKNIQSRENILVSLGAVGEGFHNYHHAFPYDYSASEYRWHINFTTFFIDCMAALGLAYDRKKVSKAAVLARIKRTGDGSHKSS
Format: biochemical
Excerpt: The identification of compounds of the invention as SCD inhibitors was readily accomplished using the SCD enzyme and microsomal assay procedure described in Talamo and Bloch (1969) Analytical Biochemistry 29:300-304.
The rat liver microsomes were collected according to the procedure described in Ozols (1990) Methods Enzm, 182:225.
Male Sprague Dawley Rats were placed on regimented fasting protocol for one week to stimulate SCD enzymatic activity. 48-hour periods were alternated between feeding and fasting to induce and down-regulate SCD activity with SCD activity being induced via carbohydrate rich diet prior to liver perfusion and collection.
The rats were anesthetized with Isoflurane inhalation anesthetic, the liver perfused with cold phosphate buffered saline (PBS), weighed, and chilled in cold homogenization buffer (250 mM sucrose, […] Tris, 1 mM EDTA, pH 7.6.
The livers were finely minced and placed in homogenization tube. 40 mL of homogenization buffer was added to the homogenization tube and the liver homogenized and centrifuged in a pre-chilled SLA-600 TC at 800G rotor for 10 min at 4° C.
Following centrifugation, the supernatant was collected and the pellet removed and discarded. The supernatant was centrifuge at 10,000 G for 35 minutes. Following centrifugation, the supernatant was collect and the pellet discarded. The supernatant was then centrifuged in a pre-chilled 45-Ti rotor at 130,000 G (41,000 RPM) for 90 minutes at 4° C.
The supernatant was then aspirated off and the collected microsomal pellet washed in 25 mL of Glycerol PBS (1×PBS 7.4, 20% Glycerol) and resuspended in 4-5 volumes of Glycerol PBS.
The protein concentration of the microsomal preparation was determined by BCA assay (Pierce) and the microsomes were aliquoted and stored at −80° C.
SCD was determined in the desaturase assay buffer. This assay buffer contained 0.1 M Tris buffer, pH 7.2, 2 mM NADH, 4.8 mM ATP, 0.5 mM CoA, 4.8 mM MgCl2, and 0.1% BSA.
The Procedure for the SCD Assay (Adapted from Talamo and Bloch (1969) Analytical Biochemistry 29:300-304)
1 μl of each compound of Formula I was added to an assay plate by a low volume (0.5-10 μL) multichannel pipette. A DMSO control was also prepared. The microsomes were quickly thawed and added to assay buffer so that a concentration of 0.4 mg/ml was achieved (0.2 mg/ml assay final). 50 μl of the microsome suspension in assay buffer was then added into each well in the compound assay plate, the plate was covered, and the microsomes preincubated with the compounds for 30 minutes on the orbital shaker, 50-75 rpm, at room temperature. […]
In the case of `O=C(Nc1ccc2c(=O)[nH]c(Cc3ccc(Cl)c(Cl)c3)nc2c1)OCc1ccccc1` [I., benzyl 2-(3,4-dichlorobenzyl)-4-oxo-3,4-dihydroquinazolin-7-ylcarbamate], the pIC50 was 5.60. With `O=C(Nc1ccc2nc(Cc3ccc(Cl)c(Cl)c3)[nH]c(=O)c2c1)OCc1ccccc1` [II., benzyl 2-(3,4-dichlorobenzyl)-4-oxo-3,4-dihydroquinazolin-6-ylcarbamate] the pIC50 was 5.92. `CC(=O)OCC(=O)Nc1ccc2nc(Cc3ccc(Cl)c(Cl)c3)[nH]c(=O)c2c1` [III., 2-(2-(3,4-dichlorobenzyl)-4-oxo-3,4-dihydroquinazolin-6-ylamino)-2-oxoethyl acetate] was tested, and the pIC50 was 6.12. `O=C(CO)Nc1ccc2nc(Cc3ccc(Cl)c(Cl)c3)[nH]c(=O)c2c1` [IV., N-(2-(3,4-dichlorobenzyl)-4-oxo-3,4-dihydroquinazolin-6-yl)-2-hydroxyacetamide] gave a pIC50 of 6.03.

Source: patent publication US20100267752A1, “3-HYDROQUINAZOLIN-4-ONE DERIVATIVES FOR USE AS STEAROYL CoA DESATURASE INHIBITORS” (Gilead Palo Alto, Inc., priority 2008, published 2010)
